Where two headings read alike, the source gives them in different places.
Tests used:
[1] = target: T1, human CB2 receptors (Homo sapiens, UniProt P34972); assay: functional cAMP assay, CHO cells expressing human CB2; type: cell-based
T1 construct: expressed in transfected cells; host or cells: CHO cells
Procedure: (§1) CHO cells expressing human CB1 or CB2 receptors are seeded 17-24 hours prior to the experiment 50.000 cells per well in a black 96 well plate with flat clear bottom (Corning Costar #3904) in DMEM (Invitrogen No. 31331), 1×HT supplement, with 10% fetal calf serum and incubated at 5% CO2 and 37° C. in a humidified incubator. The growth medium was exchanged with Krebs Ringer Bicarbonate buffer with 1 mM IBMX and incubated at 30° C. for 30 min. Compounds were added to a final assay volume of 100 μl and incubated for 30 min at 30° C. Using the cAMP-Nano-TRF detection kit the assay (Roche Diagnostics) was stopped by the addition of 50 μl lysis reagent (Tris, NaCl, 1.5% Triton X100, 2.5% NP40, 10% NaN3) and 50 μl detection solutions (20 μM mAb Alexa700-cAMP 1:1, and 48 μM Ruthenium-2-AHA-cAMP) and shaken for 2 h at room temperature. The time-resolved energy transfer is measured by a TRF reader (Evotec Technologies GmbH), equipped with a ND:YAG laser as excitation source. The plate is measured twice with the excitation at 355 nm and at the emission with a delay of 100 ns and a gate of 100 ns, total exposure time 10 s at 730 (bandwidth 30 nm) or 645 nm (bandwidth 75 nm), respectively. The FRET signal is calculated as follows: FRET=T730-Alexa730-P(T645-B645) with P=Ru730-B730/Ru645-B645, where T730 is the test well measured at 730 nM, T645 is the test well measured at 645 nm, B730 and B645 are the buffer controls at 730 nm and 645 nm, respectively. cAMP content is determined from the function of a standard curve spanning from 10 μM to 0.13 nM cAMP.
(§2) EC50 values were determined using Activity Base analysis (ID Business Solution, Limited). The EC50 values for a wide range of cannabinoid agonists generated from this assay were in agreement with the values published in the scientific literature.

[2] = target: T2, human CB1 receptors (Homo sapiens, UniProt P21554); assay: functional cAMP assay, CHO cells expressing human CB1; type: cell-based
T2 construct: expressed in transfected cells; host or cells: CHO cells
T2 sequence (P21554 whole entry): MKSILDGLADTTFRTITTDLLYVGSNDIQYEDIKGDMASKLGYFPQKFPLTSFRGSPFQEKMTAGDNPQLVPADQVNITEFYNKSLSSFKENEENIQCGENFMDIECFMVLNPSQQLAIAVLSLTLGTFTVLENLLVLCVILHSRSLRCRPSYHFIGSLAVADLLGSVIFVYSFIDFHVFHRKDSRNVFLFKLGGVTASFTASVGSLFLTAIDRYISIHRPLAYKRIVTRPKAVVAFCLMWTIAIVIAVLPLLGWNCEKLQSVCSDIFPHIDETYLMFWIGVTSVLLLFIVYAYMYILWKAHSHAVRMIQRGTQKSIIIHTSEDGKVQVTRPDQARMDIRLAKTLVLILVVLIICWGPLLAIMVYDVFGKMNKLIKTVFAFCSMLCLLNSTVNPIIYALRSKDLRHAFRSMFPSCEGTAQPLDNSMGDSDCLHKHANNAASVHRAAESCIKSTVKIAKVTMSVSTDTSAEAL
Procedure: as §1, §2

[3] = functional cAMP assay, CHO cells expressing human CB2, read-out: Human CB2 EC50

T1 sequence (P34972 whole entry): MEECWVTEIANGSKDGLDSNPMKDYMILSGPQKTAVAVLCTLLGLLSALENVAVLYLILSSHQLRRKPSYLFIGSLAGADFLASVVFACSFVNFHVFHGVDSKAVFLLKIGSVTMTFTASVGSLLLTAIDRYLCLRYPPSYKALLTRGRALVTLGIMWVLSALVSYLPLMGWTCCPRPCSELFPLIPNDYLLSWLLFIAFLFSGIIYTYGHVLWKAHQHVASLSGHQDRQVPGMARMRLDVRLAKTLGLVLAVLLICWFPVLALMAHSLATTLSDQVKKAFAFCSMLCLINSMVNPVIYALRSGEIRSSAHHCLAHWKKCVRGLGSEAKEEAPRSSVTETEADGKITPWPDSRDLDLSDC

Row | SMILES | EC50 [1, 3] [µM] | EC50 [2] [µM] | EC50 [1] [µM]
1 | NC(=O)[C@@H]1CC(F)(F)CN1C(=O)c1ccc(C2CC2)c(OCCF)c1 [Example 40, 1-[4-Cyclopropyl-3-(2-fluoroethoxy)benzoyl]-4,4-difluoro-L-prolinamide] | 0.216 | > 10 | –
2 | Cc1nc(C(C)(C)NC(=O)c2ccc(N3CC(F)(F)C3)c(OCC3CC3)c2)no1 [Example 10, 3-(Cyclopropylmethoxy)-4-(3,3-difluoroazetidin-1-yl)-N-[2-(5-methyl-1,2,4-oxadiazol-3-yl)propan-2-yl]benzamide] | – | > 10 | 0.0329
3 | CC(C)Oc1cc(C(=O)N[C@@](C)(CC(N)=O)C2CC2)ccc1C1CC1 [Example 43, N-[(2S)-4-Amino-2-cyclopropyl-4-oxobutan-2-yl]-4-cyclopropyl-3-[(propan-2-yl)oxy]benzamide] | – | > 10 | 0.0308
4 | CNC(=O)[C@@H](NC(=O)c1ccc(C2CC2)c(OCCF)c1)C(C)(C)C [Example 39, 4-Cyclopropyl-N-[(2S)-3,3-dimethyl-1-(methylamino)-1-oxobutan-2-yl]-3-(2-fluoroethoxy)benzamide] | – | 1.56 | 0.0115
5 | CCC(CC)(NC(=O)c1ccc(C2CC2)c(OCC2CC2)c1)C(=O)N1CC(F)(F)C1 [Example 9, 4-Cyclopropyl-3-(cyclopropylmethoxy)-N-[3-(3,3-difluoroazetidine-1-carbonyl)pentan-3-yl]benzamide] | – | > 10 | 0.00756
6 | Cc1nc([C@](C)(CC2CC2)NC(=O)c2ccc(C3CC3)c(N3CCC(F)(F)C3)c2)no1 [Example 64, 4-Cyclopropyl-N-[(2S)-1-cyclopropyl-2-(5-methyl-1,2,4-oxadiazol-3-yl)propan-2-yl]-3-(3,3-difluoropyrrolidin-1-yl)benzamide] | – | > 10 | 0.00108
7 | Cc1nc([C@@](C)(CC2CC2)NC(=O)c2ccc(C3CC3)c(OCCF)c2)no1 [Example 33] | – | > 10 | 0.0594
8 | C[C@](CC(N)=O)(NC(=O)c1ccc(C2CC2)c(-c2ccc(F)nc2)c1)C1CC1 [Example 52, N-[(2R)-4-Amino-2-cyclopropyl-4-oxobutan-2-yl]-4-cyclopropyl-3-(6-fluoropyridin-3-yl)benzamide] | – | > 10 | 0.00976
9 | CCC(CC)(NC(=O)c1ccc(C2CC2)c(OCC2CC2)c1)C(N)=O [Example 18, N-(3-Carbamoylpentan-3-yl)-4-cyclopropyl-3-(cyclopropylmethoxy)benzamide] | 0.233 | > 10 | –
10 | NC(=O)CC1(NC(=O)c2ccc(C3CC3)c(OCC3CC3)c2)CS(=O)(=O)C1 [Example 16, N-[3-(2-Amino-2-oxoethyl)-1,1-dioxothietan-3-yl]-4-cyclopropyl-3-(cyclopropylmethoxy)benzamide] | – | > 10 | 0.00265
11 | CC(C)(C)c1nc(-c2ccc(C3CC3)c(OCC(F)F)c2)no1 [Example 24, 5-tert-Butyl-3-[4-cyclopropyl-3-(2,2-difluoroethoxy)phenyl]-1,2,4-oxadiazole] | – | > 10 | 0.0155
12 | NC(=O)[C@@H]1CC(F)(F)CN1C(=O)c1ccc(C2CC2)c(-c2ccc(F)nc2)c1 [Example 57, 1-[4-Cyclopropyl-3-(6-fluoropyridin-3-yl)benzoyl]-4,4-difluoro-L-prolinamide] | 0.274 | > 10 | –
13 | NC(=O)CC1(NC(=O)c2ccc(C3CC3)c(OCC(F)(F)F)c2)CS(=O)(=O)C1 [Example 27, N-[3-(2-Amino-2-oxoethyl)-1,1-dioxothietan-3-yl]-4-cyclopropyl-3-(2,2,2-trifluoroethoxy)benzamide] | – | > 10 | 0.098
14 | CC(C)(C)c1noc(-c2ccc(C3CC3)c(OCC3CC3)c2)n1 [Example 14, 3-tert-Butyl-5-[4-cyclopropyl-3-(cyclopropylmethoxy)phenyl]-1,2,4-oxadiazole] | – | > 10 | 0.0233
15 | NC(=O)CC1(NC(=O)c2ccc(C3CC3)c(OCC3CC3)c2)COC1 [Example 15, N-[3-(2-Amino-2-oxoethyl)oxetan-3-yl]-4-cyclopropyl-3-(cyclopropylmethoxy)benzamide] | – | > 10 | 0.0341
16 | Cn1nccc1-c1cc(C(=O)N2CC(F)(F)C[C@H]2C(N)=O)ccc1C1CC1 [Example 55, 1-[4-Cyclopropyl-3-(1-methyl-1H-pyrazol-5-yl)benzoyl]-4,4-difluoro-L-prolinamide] | 1.91 | > 10 | –
17 | CC(C)(NC(=O)c1ccc(N2CC(F)(F)C2)c(OCC2CC2)c1)c1noc(N)n1 [Example 11, N-[2-(5-Amino-1,2,4-oxadiazol-3-yl)propan-2-yl]-3-(cyclopropylmethoxy)-4-(3,3-difluoroazetidin-1-yl)benzamide] | – | > 10 | 0.0987
18 | C[C@@](CC(N)=O)(NC(=O)c1ccc(C2CC2)c(OCC(F)(F)F)c1)C1CC1 (single isomer, unassigned) [Example 35, (−)-N-[4-Amino-2-cyclopropyl-4-oxobutan-2-yl]-4-cyclopropyl-3-(2,2,2-trifluoroethoxy)benzamide] | – | > 10 | 0.00856
19 | NC(=O)[C@@H]1CC(F)(F)CN1C(=O)c1ccc(C2CC2)c(OCC2CC2)c1 [Example 17, 1-[4-Cyclopropyl-3-(cyclopropylmethoxy)benzoyl]-4,4-difluoro-L-prolinamide] | – | > 10 | 0.00051
20 | Cc1nc(C(C)(C)NC(=O)c2ccc(C3CC3)c(OCC3CC3)c2)no1 [Example 3, 4-Cyclopropyl-3-(cyclopropylmethoxy)-N-[2-(5-methyl-1,2,4-oxadiazol-3-yl)propan-2-yl]benzamide] | 0.122 | > 10 | –
21 | CC(C)(C)c1nc(-c2ccc(C3CC3)c(OCC(F)(F)F)c2)no1 [Example 23, 5-tert-Butyl-3-[4-cyclopropyl-3-(2,2,2-trifluoroethoxy)phenyl]-1,2,4-oxadiazole] | – | > 10 | 0.0259
22 | Cc1nc(C(NC(=O)c2ccc(C3CC3)c(OCC(F)(F)F)c2)C2(C)COC2)no1 (stereo not shown) [Example 67, 4-Cyclopropyl-N-[(5-methyl-1,2,4-oxadiazol-3-yl)(3-methyloxetan-3-yl)methyl]-3-(2,2,2-trifluoroethoxy)benzamide] | 0.263 | > 10 | –
23 | NC(=O)[C@@H]1CC(F)(F)CN1C(=O)c1ccc(C2CC2)c(OCC(F)(F)F)c1 [Example 42, 1-[4-Cyclopropyl-3-(2,2,2-trifluoroethoxy)benzoyl]-4,4-difluoro-L-prolinamide] | 0.134 | > 10 | –
24 | Cc1nc([C@](C)(CS(C)(=O)=O)NC(=O)c2ccc(C3CC3)c(OCC3CC3)c2)no1 [Example 21, 4-Cyclopropyl-3-(cyclopropylmethoxy)-N-[(2R)-1-(methanesulfonyl)-2-(5-methyl-1,2,4-oxadiazol-3-yl)propan-2-yl]benzamide] | – | > 10 | 0.297
25 | C[C@@](CC(N)=O)(NC(=O)c1ccc(C2CC2)c(OCC(F)(F)F)c1)C1CC1 [Example 51, N-[(2S)-4-Amino-2-cyclopropyl-4-oxobutan-2-yl]-4-cyclopropyl-3-(2,2,2-trifluoroethoxy)benzamide] | – | > 10 | 0.0808
26 | CNC(=O)[C@@H](NC(=O)c1ccc(C2CC2)c(-c2ccnn2C)c1)C(C)(C)C [Example 56, 4-Cyclopropyl-N-[(2S)-3,3-dimethyl-1-(methylamino)-1-oxobutan-2-yl]-3-(1-methyl-1H-pyrazol-5-yl)benzamide] | 0.14 | > 10 | –

— patent publication US11339120B2, “Phenyl derivatives as cannabinoid receptor 2 agonists” (priority 2015, dated 2022)
